Reference: US20220396565A1 (Hoffmann-La Roche Inc., priority 2020, published 2022)
Where a name gives a salt, the structure may show the parent alone.

What follows are compounds tested on Acinetobacter baumannii ATCC17961 (assay: Antimicrobial susceptibility testing: 90% growth inhibitory concentration (IC90) determination, Iso-Sensitest broth). Conditions: 90% growth inhibitory concentration, Acinetobacter baumannii ATCC17961, Iso-Sensitest broth; formate; read-out: ATCC 17961 IC90.
Type: cell-based
Outline: (§1)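 Growth at OD600 was monitored every 20 min for 16 h at 35±2 °C, with bacteria inoculated at ~5×10^(5) CFU/ml into Iso-Sensitest medium. Compounds were tested as 10-point twofold dilutions (e.g. 10–0.02 μM final). The 90% inhibitory concentration comes from the log-phase growth.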

Row | IC90 [nM] | Compound
1 | 80 | COc1ccc(-c2cnc(C(=O)Nc3ccc(C(=O)N4CCN(C(=O)N[C@H]5CNC[C@@H]5O)CC4)c(Cl)c3)n2C)c(F)c1F [Example 284, 4-[2-chloro-4-[[5-(2,3-difluoro-4-methoxy-phenyl)-1-methyl-imidazole-2-carbonyl]amino]benzoyl]-N-[(3S,4S)-4-hydroxypyrrolidin-3-yl]piperazine-1-carboxamide formate]

Same assay, conditions: 90% growth inhibitory concentration, Acinetobacter baumannii ATCC17961, Iso-Sensitest broth; read-out: ATCC 17961 IC90

Row | Compound | IC90 [nM]
2 | N-(azetidin-3- ylmethyl)-1-[2-chloro- 4-[[5-[4- (cyanomethoxy)-2,3- difluoro-phenyl]-1- methyl-imidazole-2- carbonyl]amino]benzoyl] piperidine-4- carboxamide trifluoroacetate [Example 264] | 90

Same assay, conditions: Acinetobacter baumannii, ATCC17961, 90% growth inhibitory concentration, Acinetobacter baumannii ATCC17961, Iso-Sensitest broth; read-out: ATCC 17961 IC90

Row | Compound | IC90 [nM]
3 | Cn1c(-c2ccc(OCC#N)c(F)c2F)cnc1C(=O)Nc1ccc(C(=O)N2CCN(C(=O)N[C@H]3CNC[C@@H]3O)CC2)c(Cl)c1 [Example 282] | 60
4 | C#CCNCCCNC(=O)C1CCN(C(=O)c2ccc(NC(=O)c3ncc(-c4ccc(OC)c(F)c4F)n3C)cc2CC)CC1 [Example 286, 1-[4-[[5-(2,3-difluoro-4-methoxy-phenyl)-1-methyl-imidazole-2-carbonyl]amino]-2-ethyl-benzoyl]-N-[3-(prop-2-ynylamino)propyl]piper-idine-4-carboxamide] | 180
5 | Cn1c(-c2ccc(OC(F)F)c(F)c2F)cnc1C(=O)Nc1ccc(C(=O)N2CCN(C(=O)C3CCN(CCN)CC3)CC2)c(Cl)c1 [Example 292, N-[4-[4-[1-(2-aminoethyl)piperidine-4-carbonyl]piperazine-1-carbonyl]-3-chloro-phenyl]-5-[4-(difluoromethoxy)-2,3-difluoro-phenyl]-1-methyl-imidazole-2-carboxamide trifluoroacetate] | 40

Next, values leading:

Row | IC90 [nM] | Compound
6 | 100 | COc1ccc(-c2cnc(C(=O)Nc3ccc(C(=O)N4CCN(C(=O)C5CC(C(N)=O)C5)CC4)c(Cl)c3)n2C)c(F)c1F (stereo not shown) [Example 280, N-(4-(4-(3-carbamoylcyclobutane-1-carbonyl)piperazine-1-carbonyl)-3-chlorophenyl)-5-(2,3-difluoro-4-methoxyphenyl)-1-methyl-1H-imidazole-2-carboxamide]
7 | 40 | COc1ccc(-c2cnc(C(=O)Nc3ccc(C(=O)N4CCN(C(=O)N[C@H]5CNC[C@@H]5O)CC4)c(Cl)c3)n2C)c(F)c1F [Example 283, 4-[2-chloro-4-[[5-(2,3-difluoro-4-methoxy-phenyl)-1-methyl-imidazole-2-carbonyl]ami-no]benzoyl]-N-[(3R,4R)-4-hydroxypyrrolidin-3-yl]piperazine-1-carboxamide formate]
8 | 100 | COc1ccc(-c2cnc(C(=O)Nc3ccc(C(=O)N4CCN(C(=O)N[C@H]5CNC[C@@H]5O)CC4)c(C)c3)n2C)c(F)c1F [Example 285, 4-[4-[[5-(2,3-difluoro-4-methoxy-phenyl)-1-methyl-imidazole-2-carbonyl]amino]-2-methyl-benzoyl]-N-[(3S,4S)-4-hydroxypyrrolidin-3-yl]piperazine-1-carboxamide formate]
9 | 70 | Cn1c(-c2ccc(OC(F)F)c(F)c2F)cnc1C(=O)Nc1ccc(C(=O)N2CCN(C(=O)C3CCN(CC(N)=O)CC3)CC2)c(Cl)c1 [Example 289]
10 | 40 | COc1ccc(-c2cnc(C(=O)Nc3ccc(C(=O)N4CCN(C(=O)CN5CCC(O)C5)CC4)c(Cl)c3)n2C)c(F)c1F (stereo not shown) [Example 294, N-[3-chloro-4-[4-[2-(3-hydroxypyrrolidin-1-yl)acetyl]piperazine-1-carbonyl]phenyl]-5-(2,3-difluoro-4-methoxy-phenyl)-1-methyl-imidazole-2-carboxamide formate]
11 | 110 | COc1ccc(-c2cnc(C(=O)Nc3ccc(C(=O)N4CCN(C(=O)CN5CC(O)C5)CC4)c(Cl)c3)n2C)c(F)c1F [Example 295, N-[3-chloro-4-[4-[2-(3-hydroxyazetidin-1-yl)acetyl]piperazine-1-carbonyl]phenyl]-5-(2,3-difluoro-4-methoxy-phenyl)-1-methyl-imidazole-2-carboxamide formate]

Same assay, conditions: Acinetobacter baumannii, ATCC17961, read-out: ATCC 17961 IC90

Row | Compound | IC90 [nM]
12 | Cn1c(-c2ccc(OCC#N)c(F)c2F)cnc1C(=O)Nc1ccc(C(=O)N2CCN(C(=O)NCCN)CC2)c(Cl)c1 [Example 281, N-(2-Aminoethyl)-4-(2-chloro-4-(5-(4-(cyanomethoxy)-2,3-difluorophenyl)-1-methyl-1H-imidazole-2-carboxamido)benzoyl)piperazine-1-carboxamide 2,2,2-trifluoroacetate] | 60
13 | Cn1c(-c2ccc(OCC#N)c(F)c2F)cnc1C(=O)Nc1ccc(C(=O)N2CCN(CCNCC(N)=O)CC2)c(Cl)c1 [Example 287, N-[4-[4-[2-[(2-amino-2-oxoethyl)amino]ethyl]piper-azine-1-carbonyl]-3-chloro-phenyl]-5-[4-(cyanomethoxy)-2,3-difluoro-phenyl]-1-methyl-imidazole-2-carboxamide formate] | 140
14 | COc1ccc(-c2cnc(C(=O)Nc3ccc(C(=O)N4CCN(C(=O)C5CCN(CC(=O)O)CC5)CC4)c(Cl)c3)n2C)c(F)c1F [Example 288, 2-[4-[4-[2-Chloro-4-[[5-(2,3-difluoro-4-methoxy-phenyl)-1-methyl-imidazole-2-carbonyl]amino]benzoyl]piperazine-1-carbonyl]-1-piperidyl]acetic acid trifluoroacetate] | 470
15 | COc1ccc(-c2cnc(C(=O)Nc3ccc(C(=O)N4CCN(C(=O)C5CCN(CCN)CC5)CC4)c(Cl)c3)n2C)c(F)c1F [Example 290, N-[4-[4-[1-(2-Aminoethyl)piperidine-4-carbonyl]piperazine-1-carbonyl]-3-chloro-phenyl]-5-(2,3-difluoro-4-methoxy-phenyl)-1-methyl-imidazole-2-carboxamide formate] | 50
16 | COc1ccc(-c2cnc(C(=O)Nc3ccc(C(=O)N4CCN(CC5CCNC5)CC4)c(Cl)c3)n2C)c(F)c1F (stereo not shown) [Example 291, N-[3-chloro-4-[4-(pyrrolidin-3-ylmethyl)piperazine-1-carbonyl]phenyl]-5-(2,3-difluoro-4-methoxy-phenyl)-1-methyl-imidazole-2-carboxamide formate] | 50
17 | COc1ccc(-c2cnc(C(=O)Nc3ccc(C(=O)N4CCN(C(=O)CN5CCCC5)CC4)c(Cl)c3)n2C)c(F)c1F [Example 293, N-[3-Chloro-4-[4-(2-pyrrolidin-1-ylacetyl)piperazine-1-carbonyl]phenyl]-5-(2,3-difluoro-4-methoxy-phenyl)-1-methyl-imidazole-2-carboxamide formate] | 30
18 | COc1ccc(-c2cnc(C(=O)Nc3ccc(C(=O)N4CCN(C(=O)CCOCCNC(=O)CN(C)C)CC4)c(Cl)c3)n2C)c(F)c1F [Example 299, N-[3-Chloro-4-[4-[3-[2-[[2-(dimethylamino)acetyl]amino]ethoxy]propanoyl]piperazine-1-carbonyl]phenyl]-5-(2,3-difluoro-4-methoxy-phenyl)-1-methyl-imidazole-2-carboxamide] | 150

The compounds below were run on Acinetobacter baumannii ATCC17978 in the same assay as above. Conditions: 90% growth inhibitory concentration, Acinetobacter baumannii ATCC17978, Iso-Sensitest broth; read-out: ATCC 17978 IC90.
Type: cell-based
Outline: as §1

Row | IC90 [nM] | Compound
19 | 300 | COc1ccc(-c2cnc(C(=O)Nc3ccc(C(=O)N4CCC(CN)CC4)c(Cl)c3)n2C)c(F)c1F [Example 16, N-[4-[4-(aminomethyl)piperidine-1-carbonyl]-3-chloro-phenyl]-5-(2,3-difluoro-4-methoxy-phenyl)-1-methyl-imidazole-2-carboxamide trifluoroacetate]
20 | 5700 | CCc1cc(NC(=O)c2ncc(-c3ccc(OC)c(F)c3F)n2C)ccc1C(=O)N1CCC(Cc2nc(C3CCC3)no2)CC1 [Example 27, N-[4-[4-[(3-cyclobutyl-1,2,4-oxadiazol-5-yl)methyl]piperidine-1-carbonyl]-3-ethyl-phenyl]-5-(2,3-difluoro-4-methoxy-phenyl)-1-methyl-imidazole-2-carboxamide]
21 | 60 | Cn1c(-c2ccc(OCC#N)c(F)c2F)cnc1C(=O)Nc1ccc(C(=O)N2CCC(C(=O)N3CCOC(CN)C3)CC2)c(Cl)c1 (stereo not shown) [Example 73, N-(4-(4-(2-(aminomethyl)morpholine-4-carbonyl)piperidine-1-carbonyl)-3-chlorophenyl)-5-(4-(cyanomethoxy)-2,3-difluorophenyl)-1-methyl-1H-imidazole-2-carboxamide 2,2,2-trifluoroacetate]
22 | 100 | Cn1c(-c2ccc(OCC#N)c(F)c2F)cnc1C(=O)Nc1ccc(C(=O)N2CCC(C(=O)N3CCOCC3)CC2)c(Cl)c1 [Example 74, N-(3-chloro-4-(4-(morpholine-4-carbonyl)piperidine-1-carbonyl)phenyl)-5-(4-(cyanomethoxy)-2,3-difluorophenyl)-1-methyl-1H-imidazole-2-carboxamide]
23 | 100 | Cn1c(-c2ccc(OCC#N)c(F)c2F)cnc1C(=O)Nc1ccc(C(=O)N2CCC(C(=O)N3CCS(=O)(=O)CC3)CC2)c(Cl)c1 [Example 75, N-(3-chloro-4-(4-(1,1-dioxidothiomorpholine-4-carbonyl)piperidine-1-carbonyl)phenyl)-5-(4-(cyanomethoxy)-2,3-difluorophenyl)-1-methyl-1H-imidazole-2-carboxamide]
24 | 210 | Cn1c(-c2ccc(OCC#N)c(F)c2F)cnc1C(=O)Nc1ccc(C(=O)N2CCC(C(=O)N3CCSCC3)CC2)c(Cl)c1 [Example 76, N-(3-chloro-4-(4-(thiomorpholine-4-carbonyl)piperidine-1-carbonyl)phenyl)-5-(4-(cyanomethoxy)-2,3-difluorophenyl)-1-methyl-1H-imidazole-2-carboxamide]
25 | 170 | Cc1cc(NC(=O)c2ncc(-c3ccc(OCC#N)c(F)c3F)n2C)ccc1C(=O)N1CCC(C(=O)N2CCS(=O)(=O)CC2)CC1 [Example 77, 5-(4-(cyanomethoxy)-2,3-difluorophenyl)-N-(4-(4-(1,1-dioxidothiomorpholine-4-carbonyl)piperidine-1-carbonyl)-3-methylphenyl)-1-methyl-1H-imidazole-2-carboxamide]
